Experimental data reported in patent publication US9499519B2, “Fused pyrimidine compounds and use thereof” (Medivation Technologies, Inc., priority 2012, dated 2016).
Like-named read-outs stand apart in the source and are kept apart here.

Legend:
[1] = biological target: T1, IR (Homo sapiens, UniProt P06213); test: In vitro IR enzymatic assay (ADP-Glo kinase assay); type: biochemical; conditions: activated IR, 30 nM
T1 construct: purchased Millipore 14-803
Description: (§1) IC50 values of the compounds of the invention against IGF-1R and IR were measured in vitro using an ADP-Glo kinase assay Kit (Promega). […] Kinase reactions in both assays were conducted at 30° C. for 20 min with increasing concentrations of compounds of the invention.
Additional compounds of the invention were screened against activated IR.

[2] = biological target: T2, IGF-1R (Homo sapiens, UniProt P08069); test: In vitro IGF-1R enzymatic assay (ADP-Glo kinase assay); type: biochemical; conditions: activated IGF-1R; for % Inh @ 30 nM Avg / inhibition at 0.03 µM: 30 nM
T2 construct: purchased Millipore 14-802
Description: as §1
Additional compounds of the invention were screened against activated IGF-1R.

[3] = system: Akt phosphorylation induced by IGF-1R; test: Western blot analysis of Akt phosphorylation induced by IGF-1 in HT-29 cells; type: cell-based, Human; conditions: for Levels of phosphorylated AKT in treated cells (pAKT/actin): HT-29 cells, IGF-1; for p-AKT relative to levels with 0.1 nM compound: Table B2 lower part; for Normalized phosphorylated AKT (relative to actin) levels relative to 0.1 nM compound treatment: Table B2 upper part
Description: Inhibition of Akt phosphorylation induced by IGF-1R was studied by western blot analysis. Human colon carcinoma HT-29 cells were seeded at a density of 8×10^4 cells/well in a 24-well plate and grown in DME/F12 media containing 10% FBS for 24 h. The cells were then depleted of serum by incubation in DME/F12 media lacking FBS for 24 h. […] […] Lysed cells were centrifuged at 13,000 rpm for 15 min and the protein concentration soluble fraction (supernatant) of each sample was determined using a BCA protein assay (Pierce).

[4] = N1, read-out: % Inh @ 30 nM (N1)
[5] = N2, read-out: % Inh @ 30 nM (N2)
[6] = average, read-out: % Inh @ 30 nM Avg

T2 sequence (P08069 31-1367): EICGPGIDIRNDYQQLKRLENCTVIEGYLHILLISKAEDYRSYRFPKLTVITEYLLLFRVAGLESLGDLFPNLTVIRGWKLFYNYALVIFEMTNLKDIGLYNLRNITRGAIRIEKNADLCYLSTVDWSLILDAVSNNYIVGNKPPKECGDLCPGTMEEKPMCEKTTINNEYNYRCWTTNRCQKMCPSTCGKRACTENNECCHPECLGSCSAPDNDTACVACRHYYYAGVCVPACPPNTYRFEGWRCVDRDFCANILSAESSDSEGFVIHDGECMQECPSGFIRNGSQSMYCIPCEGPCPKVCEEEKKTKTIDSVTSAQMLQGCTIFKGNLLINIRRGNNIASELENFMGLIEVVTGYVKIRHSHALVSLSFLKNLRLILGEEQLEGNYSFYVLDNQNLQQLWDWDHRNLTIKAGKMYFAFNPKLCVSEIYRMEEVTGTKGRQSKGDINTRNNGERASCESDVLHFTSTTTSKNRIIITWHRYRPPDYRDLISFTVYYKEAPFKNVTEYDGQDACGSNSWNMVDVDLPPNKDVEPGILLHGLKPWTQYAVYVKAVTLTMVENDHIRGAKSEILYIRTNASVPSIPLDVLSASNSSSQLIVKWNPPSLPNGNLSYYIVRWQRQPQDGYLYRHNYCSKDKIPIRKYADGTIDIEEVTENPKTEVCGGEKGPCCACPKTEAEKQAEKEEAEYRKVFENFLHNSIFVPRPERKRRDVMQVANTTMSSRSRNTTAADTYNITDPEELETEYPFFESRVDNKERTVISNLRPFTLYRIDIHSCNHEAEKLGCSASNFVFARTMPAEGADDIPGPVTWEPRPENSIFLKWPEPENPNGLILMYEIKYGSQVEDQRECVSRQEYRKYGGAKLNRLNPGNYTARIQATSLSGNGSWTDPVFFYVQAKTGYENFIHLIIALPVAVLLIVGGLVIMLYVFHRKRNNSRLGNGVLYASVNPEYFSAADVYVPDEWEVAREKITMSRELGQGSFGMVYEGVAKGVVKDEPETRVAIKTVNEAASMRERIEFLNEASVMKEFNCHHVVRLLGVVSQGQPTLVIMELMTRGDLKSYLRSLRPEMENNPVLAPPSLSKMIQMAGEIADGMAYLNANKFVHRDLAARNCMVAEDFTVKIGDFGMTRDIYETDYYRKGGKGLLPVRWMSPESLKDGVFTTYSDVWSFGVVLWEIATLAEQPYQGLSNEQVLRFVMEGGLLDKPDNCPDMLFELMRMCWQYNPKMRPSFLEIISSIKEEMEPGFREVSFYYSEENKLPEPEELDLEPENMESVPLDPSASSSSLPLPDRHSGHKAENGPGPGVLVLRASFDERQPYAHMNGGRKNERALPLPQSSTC
T1 sequence (P06213 28-1382): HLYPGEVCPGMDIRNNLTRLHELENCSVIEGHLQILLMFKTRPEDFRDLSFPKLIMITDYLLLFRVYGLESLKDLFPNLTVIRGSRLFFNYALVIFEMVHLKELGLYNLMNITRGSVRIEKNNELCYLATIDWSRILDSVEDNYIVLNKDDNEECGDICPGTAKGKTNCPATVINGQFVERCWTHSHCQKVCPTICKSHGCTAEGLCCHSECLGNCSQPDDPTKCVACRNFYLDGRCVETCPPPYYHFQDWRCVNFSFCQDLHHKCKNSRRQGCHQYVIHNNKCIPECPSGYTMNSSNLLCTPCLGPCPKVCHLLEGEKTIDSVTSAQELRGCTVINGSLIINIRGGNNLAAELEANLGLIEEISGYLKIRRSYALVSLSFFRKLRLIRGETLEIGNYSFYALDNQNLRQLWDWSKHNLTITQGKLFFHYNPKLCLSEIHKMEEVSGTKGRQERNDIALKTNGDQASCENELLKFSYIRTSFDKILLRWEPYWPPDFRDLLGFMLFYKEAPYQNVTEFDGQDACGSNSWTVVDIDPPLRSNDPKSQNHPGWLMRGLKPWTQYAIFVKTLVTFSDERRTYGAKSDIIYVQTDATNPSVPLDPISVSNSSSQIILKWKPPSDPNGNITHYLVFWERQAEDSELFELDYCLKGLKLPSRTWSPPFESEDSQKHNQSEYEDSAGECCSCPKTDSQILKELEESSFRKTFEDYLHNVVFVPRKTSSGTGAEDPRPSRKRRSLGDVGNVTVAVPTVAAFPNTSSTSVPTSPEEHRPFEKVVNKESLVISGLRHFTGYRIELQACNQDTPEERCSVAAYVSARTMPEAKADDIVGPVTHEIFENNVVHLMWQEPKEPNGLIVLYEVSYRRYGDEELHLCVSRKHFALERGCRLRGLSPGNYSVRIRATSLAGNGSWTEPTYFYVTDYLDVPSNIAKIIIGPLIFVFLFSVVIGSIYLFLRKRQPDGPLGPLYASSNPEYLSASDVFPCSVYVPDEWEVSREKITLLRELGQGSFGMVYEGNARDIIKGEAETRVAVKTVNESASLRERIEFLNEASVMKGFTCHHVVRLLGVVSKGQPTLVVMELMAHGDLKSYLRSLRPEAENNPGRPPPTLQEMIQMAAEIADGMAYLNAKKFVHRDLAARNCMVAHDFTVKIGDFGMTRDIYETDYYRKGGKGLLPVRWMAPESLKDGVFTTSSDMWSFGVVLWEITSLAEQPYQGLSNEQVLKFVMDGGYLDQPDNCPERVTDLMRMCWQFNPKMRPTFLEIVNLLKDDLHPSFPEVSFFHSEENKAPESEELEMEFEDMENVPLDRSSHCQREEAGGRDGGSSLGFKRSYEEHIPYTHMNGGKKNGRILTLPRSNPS

| SMILES | % Inh @ 30 nM Avg ([1]; average) [%] | % Inh @ 30 nM Avg ([2]; average) [%] | Levels of phosphorylated AKT in treated cells (pAKT/actin) ([3]; 0.1 nM compound) | p-AKT relative to levels with 0.1 nM compound ([3]; 0.1 nM) | Normalized phosphorylated AKT (relative to actin) levels relative to 0.1 nM compound treatment ([3]; 0.1 nM) | Levels of phosphorylated AKT in treated cells (pAKT/actin) ([3]; 1 nM compound) | p-AKT relative to levels with 0.1 nM compound ([3]; 1 nM) | Normalized phosphorylated AKT (relative to actin) levels relative to 0.1 nM compound treatment ([3]; 1 nM) | Levels of phosphorylated AKT in treated cells (pAKT/actin) ([3]; 10 nM compound) | p-AKT relative to levels with 0.1 nM compound ([3]; 10 nM) | Normalized phosphorylated AKT (relative to actin) levels relative to 0.1 nM compound treatment ([3]; 10 nM) | Levels of phosphorylated AKT in treated cells (pAKT/actin) ([3]; 100 nM compound) | p-AKT relative to levels with 0.1 nM compound ([3]; 100 nM) | Normalized phosphorylated AKT (relative to actin) levels relative to 0.1 nM compound treatment ([3]; 100 nM) | inhibition at 0.03 µM [1, 6] [%] | inhibition at 0.03 µM [2, 6] [%] | further results |
| --- | --- | --- | --- | --- | --- | --- | --- | --- | --- | --- | --- | --- | --- | --- | --- | --- | --- |
| CC(C)c1cc(Nc2nc(N3CCCC3C(N)=O)nc3c2CCC3)n[nH]1 (single isomer, unassigned) [Compound 18b, 1-(4-(5-isopropyl-1H-pyrazol-3-ylamino)-6,7-dihydro-5H-cyclopenta[d]pyrimidin-2-yl)pyrrolidine-2-carboxamide] | 32 | 39 | – | – | – | – | – | – | – | – | – | – | – | – | – | – | – |
| CC(C)c1cc(Nc2nc(N3CCC[C@@H]3C(=O)Nc3ccc(F)nc3)nc3c2CCC3)on1 (single isomer, unassigned) [Compound 12a] | – | – | 4.17 | 1.0 | 1.0 | 3.33 | 0.8 | 0.8 | 2.91 | 0.7 | 0.7 | 4.16 | 1.0 | 1.0 | 9 | – | inhibition at 0.03 µM [1, 4]: 10%; inhibition at 0.03 µM [1, 5]: 8% |
| CC(C)c1cc(Nc2nc(N3CCCC3C(=O)Nc3ccc(F)nc3)nc3c2CCCC3)n[nH]1 (single isomer, unassigned) [Compound 13a, N-(6-fluoropyridin-3-yl)-1-(4-(5-isopropyl-1H-pyrazol-3-ylamino)-5,6,7,8-tetrahydroquinazolin-2-yl)pyrrolidine-2-carboxamide] | – | – | 0.51 | 1.0 | 1.0 | 0.54 | 1.1 | 1.1 | 0.45 | 0.9 | 0.9 | 0.80 | 1.6 | 1.6 | 2 | 22 | inhibition at 0.03 µM [1, 4]: 4%; inhibition at 0.03 µM [1, 5]: -1%; inhibition at 0.03 µM [2, 4]: 10%; inhibition at 0.03 µM [2, 5]: 34% |
| O=C(Nc1cnccn1)C1CCCN1c1nc2c(c(Nc3cc(C4CC4)[nH]n3)n1)CCC2 (single isomer, unassigned) [Compound 6a, 1-(4-(3-cyclopropyl-1H-pyrazol-5-ylamino)-6,7-dihydro-5H-cyclopenta[d]pyrimidin-2-yl)-N-(pyrazin-2-yl)pyrrolidine-2-carboxamide] | – | – | 1.85 | 1.0 | 1.0 | 1.74 | 0.9 | 0.9 | 1.40 | 0.8 | 0.8 | 1.17 | 0.6 | 0.6 | -2 | 28 | inhibition at 0.03 µM [1, 4]: -13%; inhibition at 0.03 µM [1, 5]: 9%; inhibition at 0.03 µM [2, 4]: 22%; inhibition at 0.03 µM [2, 5]: 33% |
| CNC(=O)C1CCCN1c1nc2c(c(Nc3cc(C(C)C)[nH]n3)n1)CCC2 (single isomer, unassigned) [Compound 19a, 1-(4-(5-isopropyl-1H-pyrazol-3-ylamino)-6,7-dihydro-5H-cyclopenta[d]pyrimidin-2-yl)-N-methylpyrrolidine-2-carboxamide] | −9 | −3 | – | – | – | – | – | – | – | – | – | – | – | – | – | – | – |
| O=C(Nc1ccc(F)nc1)[C@H]1[C@@H](O)CCN1c1nc2c(c(Nc3cc(C4CC4)[nH]n3)n1)CCC2 (single isomer, unassigned) [Compound 11a] | −13 | – | 1.83 | 1.0 | 1.0 | 1.55 | 0.8 | 0.8 | 1.43 | 0.8 | 0.8 | 1.58 | 0.9 | 0.9 | – | – | % Inh @ 30 nM (N1) ([1]; N1, 0.03 µM): −17%; % Inh @ 30 nM (N2) ([1]; N2, 0.03 µM): −9% |
| CNC(=O)C1CCCN1c1nc2c(c(Nc3cc(C(C)C)[nH]n3)n1)CCC2 (single isomer, unassigned) [Compound 19b, 1-(4-(5-isopropyl-1H-pyrazol-3-ylamino)-6,7-dihydro-5H-cyclopenta[d]pyrimidin-2-yl)-N-methylpyrrolidine-2-carboxamide] | 9 | 21 | – | – | – | – | – | – | – | – | – | – | – | – | – | – | – |
| CC(C)c1cc(Nc2nc(N3CCCC3C(=O)N(C)c3ccc(F)nc3)nc3c2CCC3)n[nH]1 (stereo not drawn) [Compound 55a, N-(6-fluoropyridin-3-yl)-1-(4-((5-isopropyl-1H-pyrazol-3-yl)amino)-6,7-dihydro-5H-cyclopenta[d]pyrimidin-2-yl)-N-methylpyrrolidine-2-carboxamide] | – | – | – | – | – | – | – | – | – | – | – | – | – | – | 8 | 13 | – |
| O=C(Nc1ccc(F)nc1)C1CC(O)CN1c1nc2c(c(Nc3cc(C4CC4)[nH]n3)n1)CCC2 (single isomer, unassigned) [Compound 10d, 1-(4-(5-cyclopropyl-1H-pyrazol-3-ylamino)-6,7-dihydro-5H-cyclopenta[d]pyrimidin-2-yl)-N-(6-fluoropyridin-3-yl)-4-hydroxypyrrolidine-2-carboxamide] | – | – | – | – | – | – | – | – | – | – | – | – | – | – | 85 | 84 | – |
| CC(C)c1cc(Nc2nc(N3CC(O)CC3C(=O)Nc3ccc(F)nc3)nc3c2CCC3)n[nH]1 (racemic) [Compound 70, N-(6-fluoropyridin-3-yl)-4-hydroxy-1-(4-(5-isopropyl-1H-pyrazol-3-ylamino)-6,7-dihydro-5H-cyclopenta[d]pyrimidin-2-yl)pyrrolidine-2-carboxamide] | – | – | – | – | – | – | – | – | – | – | – | – | – | – | 60 | 66 | IC50 [2]: 22 nM |
| CC(C)c1cc(Nc2nc(N3CCCC3C(N)=O)nc3c2CCC3)n[nH]1 (single isomer, unassigned) [Compound 18a, 1-(4-(5-isopropyl-1H-pyrazol-3-ylamino)-6,7-dihydro-5H-cyclopenta[d]pyrimidin-2-yl)pyrrolidine-2-carboxamide] | 3 | 14 | – | – | – | – | – | – | – | – | – | – | – | – | – | – | – |
